Columns and labels:
Type in all cases: in vivo
[1] = system: Chilo suppressalis (Striped Rice Stemborer); assay: Activity against Chilo suppressalis (striped rice stemborer); details: 144 h, application rate of 200 ppm, artificial diet, L2 larvae, 6 days after infestation, read-out: control (at least one of mortality, anti-feedant effect, growth inhibition)
Protocol: Example B2: Activity Against Chilo suppressalis (Striped Rice Stemborer)
24-well microtiter plates with artificial diet were treated with aqueous test solutions prepared from 10′000 ppm DMSO stock solutions by pipetting. After drying, the plates were infested with L2 larvae (6-8 per well). The samples were assessed for mortality, anti-feeding effect, and growth inhibition in comparison to untreated samples 6 days after infestation. Control of Chilo suppressalis by a test sample is given when at least one of the categories mortality, anti-feedant effect, and growth inhibition is higher than the untreated sample.

[2] = system: Spodoptera littoralis (Egyptian Cotton Leaf Worm); assay: Activity against Spodoptera littoralis (Egyptian cotton leaf worm); details: foliar, 72 h, application rate of 200 ppm, cotton leaf discs sprayed, L1 larvae, 3 days after infestation, read-out: control (at least one of mortality, anti-feedant effect, growth inhibition)
Protocol: Example B8: Activity Against Spodoptera littoralis (Egyptian Cotton Leaf Worm)
Cotton leaf discs were placed onto agar in 24-well microtiter plates and sprayed with aqueous test solutions prepared from 10′000 ppm DMSO stock solutions. After drying the leaf discs were infested with five L1 larvae. The samples were assessed for mortality, anti-feeding effect, and growth inhibition in comparison to untreated samples 3 days after infestation. Control of Spodoptera littoralis by a test sample is given when at least one of the categories mortality, anti-feedant effect, and growth inhibition is higher than the untreated sample.

[3] = system: Plutella xylostella (Diamond Back Moth); assay: Activity against Plutella xylostella (diamond back moth); details: 192 h, application rate of 200 ppm, artificial diet, Plutella eggs, 8 days after infestation, read-out: effect in at least one of the two categories (mortality or growth inhibition)
Protocol: Example B7: Activity Against Plutella xylostella (Diamond Back Moth)
24-well microtiter plates with artificial diet were treated with aqueous test solutions prepared from 10′000 ppm DMSO stock solutions by pipetting. After drying, Plutella eggs were pipetted through a plastic stencil onto a gel blotting paper and the plate was closed with it. The samples were assessed for mortality and growth inhibition in comparison to untreated samples 8 days after infestation.

[4] = system: Myzus persicae (Green Peach Aphid); assay: Activity against Myzus persicae (green peach aphid), systemic activity; details: 144 h, test rate of 24 ppm, roots of infested pea seedlings in test solution (systemic), 6 days
Protocol: Example B9: Activity Against Myzus persicae (Green Peach Aphid) Systemic Activity
Roots of pea seedlings infested with an aphid population of mixed ages were placed directly into aqueous test solutions prepared from 10′000 DMSO stock solutions. The samples were assessed for mortality 6 days after placing seedlings into test solutions.

[5] = system: Diabrotica balteata (Corn Root Worm); assay: Activity against Diabrotica balteata (corn root worm); details: 96 h, application rate of 200 ppm, maize sprouts sprayed, L2 larvae, 4 days after infestation, read-out: effect in at least one of the two categories (mortality or growth inhibition)
Protocol: Example B3: Activity Against Diabrotica balteata (Corn Root Worm)
Maize sprouts placed onto an agar layer in 24-well microtiter plates were treated with aqueous test solutions prepared from 10′000 ppm DMSO stock solutions by spraying. After drying, the plates were infested with L2 larvae (6 to 10 per well). The samples were assessed for mortality and growth inhibition in comparison to untreated samples 4 days after infestation.

[6] = system: Myzus persicae (Green Peach Aphid); assay: Activity against Myzus persicae (green peach aphid), feeding/contact activity; details: foliar, 144 h, application rate of 200 ppm, sunflower leaf discs sprayed, aphid population of mixed ages, 6 days after infestation
Protocol: Example B6: Activity Against Myzus persicae (Green Peach Aphid) Feeding/Contact Activity
Sunflower leaf discs were placed onto agar in a 24-well microtiter plate and sprayed with aqueous test solutions prepared from 10′000 ppm DMSO stock solutions. After drying, the leaf discs were infested with an aphid population of mixed ages. The samples were assessed for mortality 6 days after infestation.

[7] = system: Euschistus heros (Neotropical Brown Stink Bug); assay: Activity against Euschistus heros (neotropical brown stink bug); details: 120 h, application rate of 200 ppm, soybean leaves sprayed, N2 nymphs, 5 days after infestation, read-out: effect in at least one of the two categories (mortality or growth inhibition)
Protocol: Example B4: Activity Against Euschistus heros (Neotropical Brown Stink Bug)
Soybean leaves on agar in 24-well microtiter plates were sprayed with aqueous test solutions prepared from 10′000 ppm DMSO stock solutions. After drying the leaves were infested with N2 nymphs. The samples were assessed for mortality and growth inhibition in comparison to untreated samples 5 days after infestation.

CCS(=O)(=O)c1cc(C(F)(F)F)cnc1N1Cc2cc3c(cc2C1=O)OC(F)(F)O3 [Compound P13, 6-[3-ethylsulfonyl-5-(trifluoromethyl)-2-pyridyl]-2,2-difluoro-5H-[1,3]dioxolo[4,5-f]isoindol-7-one]
≥ 80%: percent control (mortality, anti-feedant effect or growth inhibition) at 200 ppm [1] | percent control (mortality, anti-feedant effect or growth inhibition) at 200 ppm [2] | percent effect (mortality or growth inhibition) at 200 ppm [3]

CCS(=O)(=O)c1c(N2Cc3cc4c(cc3C2=O)OC(F)(F)O4)nc(-c2cncnc2)n1C [Compound P7, 6-(5-ethylsulfonyl-1-methyl-2-pyrimidin-5-yl-imidazol-4-yl)-2,2-difluoro-5H-[1,3]dioxolo[4,5-f]isoindol-7-one]
≥ 80%: mortality at 24 ppm [4] | percent effect (mortality or growth inhibition) at 200 ppm [3]

CCS(=O)(=O)c1cc(C2CC2)cnc1N1Cc2cc3c(cc2C1=O)OC(F)(F)O3 [Compound P19, 6-(5-cyclopropyl-3-ethylsulfonyl-2-pyridyl)-2,2-difluoro-5H-[1,3]dioxolo[4,5-f]isoindol-7-one]
≥ 80%: percent control (mortality, anti-feedant effect or growth inhibition) at 200 ppm [1] | percent control (mortality, anti-feedant effect or growth inhibition) at 200 ppm [2] | percent effect (mortality or growth inhibition) at 200 ppm [5] | percent effect (mortality or growth inhibition) at 200 ppm [3] | mortality at 200 ppm [6]

CCS(=O)(=O)c1c(N2Cc3cc4c(cc3C2=O)OC(F)(F)O4)nc(-n2ccc(Cl)n2)n1C [Compound P21, 6-[2-(3-chloropyrazol-1-yl)-5-ethylsulfonyl-1-methyl-imidazol-4-yl]-2,2-difluoro-5H-[1,3]dioxolo[4,5-f]isoindol-7-one]
≥ 80%: percent control (mortality, anti-feedant effect or growth inhibition) at 200 ppm [2] | percent effect (mortality or growth inhibition) at 200 ppm [5] | percent effect (mortality or growth inhibition) at 200 ppm [7] | percent effect (mortality or growth inhibition) at 200 ppm [3] | mortality at 200 ppm [6]

CCS(=O)(=O)c1cc(N(C)C(C)=O)cnc1N1Cc2cc3c(cc2C1=O)OC(F)(F)O3 [Compound P18, N-[6-(2,2-difluoro-7-oxo-5H-[1,3]dioxolo[4,5-f]isoindol-6-yl)-5-ethylsulfonyl-3-pyridyl]-N-methyl-acetamide]
≥ 80%: percent effect (mortality or growth inhibition) at 200 ppm [7] | percent effect (mortality or growth inhibition) at 200 ppm [3] | mortality at 200 ppm [6]

CCS(=O)(=O)c1cc(OCC(F)(F)F)cnc1N1Cc2cc3c(cc2C1=O)OC(F)(F)O3 [Compound P8, 6-[3-ethylsulfonyl-5-(2,2,2-trifluoroethoxy)-2-pyridyl]-2,2-difluoro-5H-[1,3]dioxolo[4,5-f]isoindol-7-one]
≥ 80%: percent control (mortality, anti-feedant effect or growth inhibition) at 200 ppm [1] | percent control (mortality, anti-feedant effect or growth inhibition) at 200 ppm [2] | percent effect (mortality or growth inhibition) at 200 ppm [5] | percent effect (mortality or growth inhibition) at 200 ppm [3]

CCS(=O)(=O)c1ccc(-c2ncccn2)nc1N1Cc2cc3c(cc2C1=O)OC(F)(F)O3 [Compound P16, 6-(3-ethylsulfonyl-6-pyrimidin-2-yl-2-pyridyl)-2,2-difluoro-5H-[1,3]dioxolo[4,5-f]isoindol-7-one]
≥ 80%: percent control (mortality, anti-feedant effect or growth inhibition) at 200 ppm [1] | percent control (mortality, anti-feedant effect or growth inhibition) at 200 ppm [2] | percent effect (mortality or growth inhibition) at 200 ppm [5] | mortality at 24 ppm [4] | percent effect (mortality or growth inhibition) at 200 ppm [7] | percent effect (mortality or growth inhibition) at 200 ppm [3] | mortality at 200 ppm [6]

CCS(=O)(=O)c1ccc(C2CC2)nc1N1Cc2cc3c(cc2C1=O)OC(F)(F)O3 [Compound P10, 6-(6-cyclopropyl-3-ethylsulfonyl-2-pyridyl)-2,2-difluoro-5H-[1,3]dioxolo[4,5-f]isoindol-7-one]
≥ 80%: percent control (mortality, anti-feedant effect or growth inhibition) at 200 ppm [1] | percent control (mortality, anti-feedant effect or growth inhibition) at 200 ppm [2] | percent effect (mortality or growth inhibition) at 200 ppm [7] | percent effect (mortality or growth inhibition) at 200 ppm [3]

CCS(=O)(=O)c1c(N2Cc3cc4c(cc3C2=O)OC(F)(F)O4)nc(-c2cc(C3CC3)no2)n1C [Compound P26, 6-[2-(3-cyclopropylisoxazol-5-yl)-5-ethylsulfonyl-1-methyl-imidazol-4-yl]-2,2-difluoro-5H-[1,3]dioxolo[4,5-f]isoindol-7-one]
≥ 80%: percent control (mortality, anti-feedant effect or growth inhibition) at 200 ppm [1] | percent control (mortality, anti-feedant effect or growth inhibition) at 200 ppm [2] | percent effect (mortality or growth inhibition) at 200 ppm [5] | percent effect (mortality or growth inhibition) at 200 ppm [3] | mortality at 200 ppm [6]

CCS(=O)(=O)c1c(N2Cc3cc4c(cc3C2=O)OC(F)(F)O4)nc(-c2cnn(CC(F)F)c2)n1C [Compound P4, 6-[2-[1-(2,2-difluoroethyl)pyrazol-4-yl]-5-ethylsulfonyl-1-methyl-imidazol-4-yl]-2,2-difluoro-5H-[1,3]dioxolo[4,5-f]isoindol-7-one]
≥ 80%: percent control (mortality, anti-feedant effect or growth inhibition) at 200 ppm [1] | percent effect (mortality or growth inhibition) at 200 ppm [5] | mortality at 24 ppm [4] | percent effect (mortality or growth inhibition) at 200 ppm [7] | percent effect (mortality or growth inhibition) at 200 ppm [3] | mortality at 200 ppm [6]

CCS(=O)(=O)c1cc(OCC(C)(F)F)cnc1N1Cc2cc3c(cc2C1=O)OC(F)(F)O3 [Compound P12, 6-[5-(2,2-difluoropropoxy)-3-ethylsulfonyl-2-pyridyl]-2,2-difluoro-5H-[1,3]dioxolo[4,5-f]isoindol-7-one]
≥ 80%: percent control (mortality, anti-feedant effect or growth inhibition) at 200 ppm [1] | percent control (mortality, anti-feedant effect or growth inhibition) at 200 ppm [2] | percent effect (mortality or growth inhibition) at 200 ppm [5] | percent effect (mortality or growth inhibition) at 200 ppm [7] | percent effect (mortality or growth inhibition) at 200 ppm [3] | mortality at 200 ppm [6]

CCS(=O)(=O)c1ccc(-n2cncn2)nc1N1Cc2cc3c(cc2C1=O)OC(F)(F)O3 [Compound P11, 6-[3-ethylsulfonyl-6-(1,2,4-triazol-1-yl)-2-pyridyl]-2,2-difluoro-5H-[1,3]dioxolo[4,5-f]isoindol-7-one]
≥ 80%: percent control (mortality, anti-feedant effect or growth inhibition) at 200 ppm [1] | percent control (mortality, anti-feedant effect or growth inhibition) at 200 ppm [2] | percent effect (mortality or growth inhibition) at 200 ppm [5] | percent effect (mortality or growth inhibition) at 200 ppm [3]

CCS(=O)(=O)c1c(N2Cc3cc4c(cc3C2=O)OC(F)(F)O4)nc(OCC(F)(F)F)n1C [Compound P6, 6-[5-ethylsulfonyl-1-methyl-2-(2,2,2-trifluoroethoxy)imidazol-4-yl]-2,2-difluoro-5H-[1,3]dioxolo[4,5-f]isoindol-7-one]
≥ 80%: percent control (mortality, anti-feedant effect or growth inhibition) at 200 ppm [1] | percent control (mortality, anti-feedant effect or growth inhibition) at 200 ppm [2] | percent effect (mortality or growth inhibition) at 200 ppm [5] | percent effect (mortality or growth inhibition) at 200 ppm [3]

CCS(=O)(=O)c1c(N2Cc3cc4c(cc3C2=O)OC(F)(F)O4)nc(-c2cnn(C3CC3)c2)n1C [Compound P17, 6-[2-(1-cyclopropylpyrazol-4-yl)-5-ethylsulfonyl-1-methyl-imidazol-4-yl]-2,2-difluoro-5H-[1,3]dioxolo[4,5-f]isoindol-7-one]
≥ 80%: percent control (mortality, anti-feedant effect or growth inhibition) at 200 ppm [1] | percent control (mortality, anti-feedant effect or growth inhibition) at 200 ppm [2] | percent effect (mortality or growth inhibition) at 200 ppm [5] | percent effect (mortality or growth inhibition) at 200 ppm [7] | percent effect (mortality or growth inhibition) at 200 ppm [3] | mortality at 200 ppm [6]

CCS(=O)(=O)c1c(N2Cc3cc4c(cc3C2=O)OC(F)(F)O4)nc(-c2cnn(CC3(C#N)CC3)c2)n1C [Compound P5, 1-[[4-[4-(2,2-difluoro-7-oxo-5H-[1,3]dioxolo[4,5-f]isoindol-6-yl)-5-ethylsulfonyl-1-methyl-imidazol-2-yl]pyrazol-1-yl]methyl]cyclopropanecarbonitrile]
≥ 80%: mortality at 24 ppm [4] | percent effect (mortality or growth inhibition) at 200 ppm [3] | mortality at 200 ppm [6]
